The test concerns the target Glutathione S-transferase omega-1 (Homo sapiens) (UniProt P78417). Briefly: IC50 of human GSTO1 blockade by gel ABPP – biochemical, SE-Rh probe, in-gel fluorescence, powder samples, set 2, late-stage follow-up (AID 463142). The settings on record: recombinant GSTO1, SE-Rh probe labeling.

SMILES strings stand for the structures.

A word on the IC50: it is the concentration that inhibits the measured activity by half.

Chain of Glutathione S-transferase omega-1 (Homo sapiens) (P78417 whole entry, looked up): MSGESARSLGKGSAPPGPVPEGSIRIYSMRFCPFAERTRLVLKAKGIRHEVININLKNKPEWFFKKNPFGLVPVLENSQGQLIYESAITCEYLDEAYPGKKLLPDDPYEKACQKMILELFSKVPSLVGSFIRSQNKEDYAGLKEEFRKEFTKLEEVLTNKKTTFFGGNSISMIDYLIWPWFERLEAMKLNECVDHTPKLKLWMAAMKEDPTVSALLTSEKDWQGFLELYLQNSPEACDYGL

For the compound `O=C(CCl)N(CCCNC(=O)C(F)(F)F)c1ccc(Cl)cc1`, the IC50 is 40 nM.

The values above are taken from PubChem BioAssay AID463142 (The Scripps Research Institute Molecular Screening Center, 2010).
